Here are results for 51 molecules from ChEMBL document CHEMBL4825680, “Structure-based discovery of potent and selective small-molecule inhibitors targeting signal transducer and activator of transcription 3 (STAT3)” (Eur J Med Chem, 2021).

Bounds are passed on as bounds.

Holding throughout (type): functional, cell-based
Experiment [1] deals with MDA-MB-231. Nature of the experiment: Antiproliferative activity against human MDA-MB-231 cells.
Experiment [2] has as its system MGC-803. Nature of the experiment: Antiproliferative activity against human MGC-803 cells.
Experiment [3] deals with A549. Description: Antiproliferative activity against human A549 cells.

Usually IC50 stands for the point on the concentration scale where inhibition reaches its midpoint. A higher IC50 goes with a need for much substance. As to `COc1ccn2c(CC(=O)Nc3ccc(-c4ccco4)cc3)c(-c3ccccc3)nc2c1`, the IC50 in experiment [1] came to 10 µM; in experiment [2] it was 2.5 µM; in experiment [3], 6.6 µM.

`COc1ccc(-c2ccc(NC(=O)c3cc(-c4ccccc4)nc4cc(OC)ccc34)cc2)cc1`: the IC50 in experiment [1] was 21 µM; in experiment [2] it was 5.8 µM; in experiment [3], 4.9 µM.

As to `COc1ccc2c(C(=O)Nc3ccc(-c4ccc(C(C)C)cc4)cc3)cc(-c3ccccc3)nc2c1`, the IC50 in experiment [1], in experiment [2] and in experiment [3] was greater than 100 µM in each case.

As for `COc1ccn2c(CC(=O)Nc3ccc4c(c3)S(=O)(=O)C=C4)c(-c3ccc4ccccc4c3)nc2c1`, the IC50 in experiment [1] stood at 1.4 µM; in experiment [2], 1.5 µM; in experiment [3] it was 1 µM.

For `CCOC(=O)COc1ccc2c(C(=O)NCc3ccc(C4CCCCC4)cc3)cc(-c3ccccc3)nc2c1`, the IC50 in experiment [1], in experiment [2] and in experiment [3] was greater than 100 µM throughout.

As for `O=C(Cc1c(-c2ccc([N+](=O)[O-])cc2)nc2ccccn12)Nc1ccc2c(c1)S(=O)(=O)C=C2`, the figures for the IC50 in experiment [1], in experiment [2] and in experiment [3] were 6.5 µM, 5.2 µM and 5.4 µM, respectively.

For the molecule `COc1ccc2c(C(=O)Nc3ccc(Br)cc3)cc(-c3ccccc3)nc2c1`, the IC50 is 25.5 µM in experiment [1], 15.5 µM in experiment [2] and 21.4 µM in experiment [3].

With `O=C(Nc1ccc(C2CCCCC2)cc1)c1cc(-c2ccccc2)nc2ccccc12`, the IC50 in experiment [1] worked out at 10 µM; in experiment [2], 5.9 µM; in experiment [3], 5.8 µM.

As to `COc1ccc2c(C(=O)Nc3ccc(-c4ccco4)cc3)cc(-c3ccccc3)nc2c1`, the results for the IC50 in experiment [1], in experiment [2] and in experiment [3] were 10.3 µM, 2.1 µM and 5.5 µM, respectively.

As for `COc1ccc2c(C(=O)Nc3ccc(F)cc3)cc(-c3ccccc3)nc2c1`, the IC50 in experiment [1], in experiment [2] and in experiment [3] was greater than 100 µM each time.

On to `COc1ccn2c(CC(=O)Nc3ccc4c(c3)S(=O)(=O)C=C4)c(-c3ccc(F)cc3)nc2c1`, for which the values for the IC50 in experiment [1], in experiment [2] and in experiment [3] were 5.1 µM, 0.9 µM and 1.3 µM, respectively.

As for `COc1cccn2c(CC(=O)Nc3ccc4c(c3)S(=O)(=O)C=C4)c(-c3ccccc3)nc12`, the IC50 in experiment [1] is 2.2 µM; in experiment [2], 1.7 µM; in experiment [3], 1 µM.

Consider `CCCCc1ccc(NC(=O)c2cc(-c3ccccc3)nc3cc(OC)ccc23)cc1`, for which the IC50 is greater than 100 µM in experiment [1], 39.6 µM in experiment [2] and 40.9 µM in experiment [3].

In the case of `COc1ccn2c(CC(=O)Nc3ccc4c(c3)S(=O)(=O)C=C4)c(-c3ccc([N+](=O)[O-])cc3)nc2c1`, the results for the IC50 in experiment [1], in experiment [2] and in experiment [3] were 4.4 µM, 2.6 µM and 1.7 µM, respectively.

Regarding `COc1ccc2c(C(=O)NCc3ccc(C4CCCCC4)cc3)cc(-c3ccccc3)nc2c1`, the IC50 in experiment [1], in experiment [2] and in experiment [3] was greater than 100 µM each time.

`COc1ccn2c(CC(=O)Nc3ccc4c(c3)S(=O)(=O)C=C4)c(-c3ccc(S(C)(=O)=O)cc3)nc2c1`: the IC50 is 5.8 µM in experiment [1], 6.4 µM in experiment [2] and 5.8 µM in experiment [3].

On to `COc1ccc2c(C(=O)Nc3ccc(-c4cc5ccccc5o4)cc3)cc(-c3ccccc3)nc2c1`, for which the IC50 in experiment [1] was 5.3 µM; in experiment [2], 4.8 µM; in experiment [3] it was 4.3 µM.

As to `COc1ccc2c(C(=O)Nc3ccc(-c4ccccc4)cc3)cc(-c3ccccc3)nc2c1`, the IC50 was 5.3 µM in experiment [1], 2.6 µM in experiment [2] and 3 µM in experiment [3].

In the case of `COc1ccc(-c2ccn3c(CC(=O)Nc4ccc5c(c4)S(=O)(=O)C=C5)c(-c4ccccc4)nc3c2)cc1`, the IC50 in experiment [1] came to 1 µM; in experiment [2] it was 0.5 µM; in experiment [3], 0.7 µM.

Regarding `O=C(O)COc1ccc2c(C(=O)Nc3ccc(C4CCCCC4)cc3)cc(-c3ccccc3)nc2c1`, the IC50 in experiment [1], in experiment [2] and in experiment [3] was greater than 100 µM throughout.

Turning to `Cc1ccc2nc(-c3ccc(Cl)cc3)c(CC(=O)Nc3ccc4c(c3)S(=O)(=O)C=C4)n2c1`, the IC50 in experiment [1] was 2 µM; in experiment [2], 1.6 µM; in experiment [3], 1.2 µM.

For `O=C(Cc1c(-c2ccccc2)nc2cc(-c3ccccc3)ccn12)Nc1ccc2c(c1)S(=O)(=O)C=C2`, the IC50 turned out to be 2.4 µM in experiment [1], 1.7 µM in experiment [2] and 1.1 µM in experiment [3].

As for `CCOC(=O)COc1ccc2c(C(=O)Nc3ccc(C4CCCCC4)cc3)cc(-c3ccccc3)nc2c1`, the IC50 in experiment [1], in experiment [2] and in experiment [3] was greater than 100 µM each time.

Consider `COc1ccn2c(CC(=O)Nc3ccc(-c4ccccc4)cc3)c(-c3ccccc3)nc2c1`, for which the figures for the IC50 in experiment [1], in experiment [2] and in experiment [3] were 10.5 µM, 3.5 µM and 3.2 µM, respectively.

For `O=C(Cc1c(-c2ccccc2)nc2cc(Cl)ccn12)Nc1ccc2c(c1)S(=O)(=O)C=C2`, the IC50 was 1.1 µM in experiment [1], 1.3 µM in experiment [2] and 0.7 µM in experiment [3].

Turning to `COc1ccc2c(C(=O)Nc3ccc(-c4cccs4)cc3)cc(-c3ccccc3)nc2c1`, the IC50 in experiment [1] turned out to be 10.8 µM; in experiment [2], 15 µM; in experiment [3], 15 µM.

Take `COc1ccc2c(C(=O)Nc3ccc(C(C)C)cc3)cc(-c3ccccc3)nc2c1`: the IC50 in experiment [1], in experiment [2] and in experiment [3] was greater than 100 µM throughout.

Consider `COc1ccc2c(C(=O)Nc3ccc(C4CCCCC4)cc3)cc(-c3ccccc3)nc2c1`, for which the IC50 in experiment [1] was determined as 5.9 µM; in experiment [2], 4.9 µM; in experiment [3], 4.9 µM.

In the case of `COc1ccc2c(C(=O)Nc3ccc(-c4ccc5cc[nH]c5c4)cc3)cc(-c3ccccc3)nc2c1`, the IC50 in experiment [1], in experiment [2] and in experiment [3] was greater than 100 µM throughout.

Take `O=C(O)COc1ccc2c(C(=O)NCc3ccc(C4CCCCC4)cc3)cc(-c3ccccc3)nc2c1`: the IC50 in experiment [1], in experiment [2] and in experiment [3] was greater than 100 µM in each case.

For `O=C(Cc1c(-c2ccccc2)nc2ccc(Br)cn12)Nc1ccc2c(c1)S(=O)(=O)C=C2`, the IC50 in experiment [1] was found to be 2 µM; in experiment [2] it was 1.5 µM; in experiment [3], 0.8 µM.

On to `Cc1ccn2c(CC(=O)Nc3ccc4c(c3)S(=O)(=O)C=C4)c(-c3ccccc3)nc2c1`, for which the IC50 is 1.6 µM in experiment [1], 1 µM in experiment [2] and 0.7 µM in experiment [3].

For the molecule `CS(=O)(=O)c1ccc(-c2nc3ccccn3c2CC(=O)Nc2ccc3c(c2)S(=O)(=O)C=C3)cc1`, the IC50 in experiment [1] was determined as 6.4 µM; in experiment [2] it was 6.9 µM; in experiment [3], 7.5 µM.

Take `O=C(Cc1c(-c2ccccc2)nc2cc(Br)ccn12)Nc1ccc2c(c1)S(=O)(=O)C=C2`: the IC50 was found to be 0.9 µM in experiment [1], 0.9 µM in experiment [2] and 0.8 µM in experiment [3].

As to `COc1ccn2c(CC(=O)Nc3ccc(C4CCCCC4)cc3)c(-c3ccccc3)nc2c1`, the IC50 came to 5.4 µM in experiment [1], 4.7 µM in experiment [2] and 5.6 µM in experiment [3].

With `O=C(Cc1cnc2ccccn12)Nc1ccc2c(c1)S(=O)(=O)C=C2`, the IC50 in experiment [1] is 20.2 µM; in experiment [2] it was 22.5 µM; in experiment [3], 23.4 µM.

As to `Cc1ccc2nc(-c3ccc(C#N)cc3)c(CC(=O)Nc3ccc4c(c3)S(=O)(=O)C=C4)n2c1`, the values for the IC50 in experiment [1], in experiment [2] and in experiment [3] were 2 µM, 2.4 µM and 2.5 µM, respectively.

On to `Cc1ccc(-c2nc3ccccn3c2CC(=O)Nc2ccc3c(c2)S(=O)(=O)C=C3)cc1`, for which the IC50 in experiment [1] is 4.1 µM; in experiment [2] it was 2.7 µM; in experiment [3], 5.5 µM.

In the case of `Cc1ccc(-c2nc3ccc(C)cn3c2CC(=O)Nc2ccc3c(c2)S(=O)(=O)C=C3)cc1`, the IC50 in experiment [1] was found to be 2.1 µM; in experiment [2], 1.8 µM; in experiment [3] it was 0.9 µM.

As for `COc1ccc2c(C(=O)Nc3ccc(Cl)cc3)cc(-c3ccccc3)nc2c1`, the figures for the IC50 in experiment [1], in experiment [2] and in experiment [3] were greater than 100 µM, 50.4 µM and greater than 100 µM, respectively.

In the case of `COc1ccc2nc(-c3ccccc3)c(CC(=O)Nc3ccc4c(c3)S(=O)(=O)C=C4)n2c1`, the half-inhibitory concentration (IC50) in experiment [1] came to 2.1 µM; in experiment [2], 1.7 µM; in experiment [3], 1.2 µM.

For the molecule `COc1ccc2c(C(=O)Nc3ccc(-c4ccc(F)cc4)cc3)cc(-c3ccccc3)nc2c1`, the results for the IC50 in experiment [1], in experiment [2] and in experiment [3] were 11.2 µM, 40.4 µM and 29.9 µM, respectively.

As for `COc1ccc2c(C(=O)Nc3ccc(-c4cccnc4)cc3)cc(-c3ccccc3)nc2c1`, the IC50 in experiment [1] was greater than 100 µM; in experiment [2] it was 64.8 µM; in experiment [3], greater than 100 µM.

For `COc1ccn2c(C(=O)Nc3ccc(C4CCCCC4)cc3)c(-c3ccccc3)nc2c1`, the IC50 in experiment [1], in experiment [2] and in experiment [3] was greater than 100 µM throughout.

Regarding `O=C(Nc1ccc(C2CCCCC2)cc1)c1cc(-c2ccccc2)nc2cc(O)ccc12`, the IC50 in experiment [1], in experiment [2] and in experiment [3] was greater than 100 µM in each case.

Consider `COc1ccc2c(C(=O)Nc3ccc(C)cc3)cc(-c3ccccc3)nc2c1`, for which the IC50 in experiment [1], in experiment [2] and in experiment [3] was greater than 100 µM throughout.

Turning to `O=C(NCc1ccc(C2CCCCC2)cc1)c1cc(-c2ccccc2)nc2ccccc12`, the IC50 is greater than 100 µM in experiment [1], 20.1 µM in experiment [2] and greater than 100 µM in experiment [3].

Consider `COc1ccn2c(CC(=O)Nc3ccc4c(c3)S(=O)(=O)C=C4)c(-c3cccs3)nc2c1`, for which the IC50 came out at 1.4 µM in experiment [1], 1.3 µM in experiment [2] and 1.1 µM in experiment [3].

In the case of `COc1ccc2c(C(=O)Nc3ccc(-c4ccc(SC)cc4)cc3)cc(-c3ccccc3)nc2c1`, the IC50 in experiment [1] was determined as 20.2 µM; in experiment [2], 15.6 µM; in experiment [3], 15.6 µM.

As to `COc1ccc(NC(=O)c2cc(-c3ccccc3)nc3cc(OC)ccc23)cc1`, the IC50 in experiment [1], in experiment [2] and in experiment [3] was greater than 100 µM throughout.

On to `Cn1cc(-c2ccn3c(CC(=O)Nc4ccc5c(c4)S(=O)(=O)C=C5)c(-c4ccccc4)nc3c2)cn1`, for which the IC50 in experiment [1] was 1.4 µM; in experiment [2], 0.7 µM; in experiment [3], 0.8 µM.
